Laboratory results reported in BindingDB's records for patent US20240383893 (Haihe Biopharma, 2024).
pIC50: −log10 of the molar value.

Target: T1, Ectonucleotide pyrophosphatase/phosphodiesterase family member 1 (Homo sapiens, UniProt P22413)
T1 sequence (P22413 whole entry): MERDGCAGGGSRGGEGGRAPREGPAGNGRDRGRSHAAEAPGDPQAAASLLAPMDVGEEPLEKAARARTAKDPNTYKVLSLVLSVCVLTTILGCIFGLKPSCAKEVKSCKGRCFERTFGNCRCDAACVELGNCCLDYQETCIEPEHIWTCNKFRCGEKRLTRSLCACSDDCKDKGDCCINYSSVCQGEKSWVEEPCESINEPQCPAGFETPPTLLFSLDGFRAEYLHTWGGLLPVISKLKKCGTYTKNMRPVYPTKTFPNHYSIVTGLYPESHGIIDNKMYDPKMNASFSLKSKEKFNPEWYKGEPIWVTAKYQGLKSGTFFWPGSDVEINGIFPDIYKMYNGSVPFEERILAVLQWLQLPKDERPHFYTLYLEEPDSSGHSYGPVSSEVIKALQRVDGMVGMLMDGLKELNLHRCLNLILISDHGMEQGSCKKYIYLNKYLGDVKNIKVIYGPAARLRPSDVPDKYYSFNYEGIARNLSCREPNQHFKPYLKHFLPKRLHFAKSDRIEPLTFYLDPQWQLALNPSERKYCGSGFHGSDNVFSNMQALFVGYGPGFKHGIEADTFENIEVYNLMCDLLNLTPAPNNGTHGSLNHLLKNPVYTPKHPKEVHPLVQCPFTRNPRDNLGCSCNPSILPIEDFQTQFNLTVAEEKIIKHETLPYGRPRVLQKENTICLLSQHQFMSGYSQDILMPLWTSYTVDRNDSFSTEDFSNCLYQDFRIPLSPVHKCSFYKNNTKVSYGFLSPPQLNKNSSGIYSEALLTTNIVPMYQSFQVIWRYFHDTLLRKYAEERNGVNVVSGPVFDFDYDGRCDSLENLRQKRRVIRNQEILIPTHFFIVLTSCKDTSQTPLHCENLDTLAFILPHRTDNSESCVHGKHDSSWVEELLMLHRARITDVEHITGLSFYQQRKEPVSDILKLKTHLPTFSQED
Assay: ENPP1 Inhibitory Activity Assay

Row | pIC50 | SMILES
1 | 8.16 | COc1ccc2c(Oc3ccc(C(C(=O)NO)C(C)C)cc3)ccnc2n1 (configuration not stated) [US20240383893, Compound 130]
2 | 7.64 | COc1ccc2c(Oc3ccc(C(C)(C(=O)NO)C(C)C)cc3)ccnc2n1 (configuration not stated) [US20240383893, Compound 165]
